The subject of this test is eggs of nematodes (Meloidogyne arenaria). In words: Ovicidal activity on the eggs of nematodes (number of hatchings). Type of test: in vivo. How it is done: The breeding of the nematodes was carried out on tomato plants. The tests were carried out with, aqueous solutions of DMDS at 0.0001%, 0.1%, 1% and 5% by mass, of DPDS at 1%, 5% and 10% by mass, and of allicin at 0.0003%, 0.0015% and 0.003% by mass, compared with a control consisting of pure water, and repeated five times. The ovicidal activity was also evaluated according to the same modalities, by counting the number of hatchings after 5 to 20 days following exposure to the products.

The record followed here is patent publication US8663669B2, “Pesticide treatment of soils or substrates with sulphur compounds” (Arkema France, priority 2002, dated 2014).

As for `CSSC` [DMDS, dimethyl disulphide], the Ovicidal activity entry (1-10 % by mass) was “very high ovicidal activity”. The “Number of hatchings (cumulative)” value is recorded as 7 (concentration by mass 1 %, D5, control 141); 7 (concentration by mass 1 %, D10, control 179); 7 (concentration by mass 1 %, D13, control 184); 7 (concentration by mass 1 %, D17, control 184); 2 (concentration by mass 5 %, D5, control 141); 2 (concentration by mass 5 %, D10, control 179). Also, the “Number of hatchings (cumulative)” value is listed as 5 (concentration by mass 5 %, D13, control 184); 5 (concentration by mass 5 %, D17, control 184); 0 (concentration by mass 10 %, D5, control 141); 2 (concentration by mass 10 %, D10, control 179); 5 (concentration by mass 10 %, D13, control 184); 5 (concentration by mass 10 %, D17, control 184). Besides, the “Reduction in the number of hatchings” value (on the last day of observation) is given as “approximately 97%”.
